In patent US11939340B2, “CDK inhibitors and their use as pharmaceuticals” (Prelude Therapeutics Incorporated, priority 2022, dated 2024):

Tests used:
CDK2/Cyclin E2 = CDK2/Cyclin E2 (Homo sapiens, UniProt P24941); test: CDK2/CyclinE2 Enzymatic Activity Assay (TR-FRET); format: biochemical; details: CDK2/CyclinE2 1 nM, ATP 1 mM, read-out: CDK2_El IC50
Experimental: CDK2/CyclinE2 Enzymatic Activity Assay
The inhibitory activity of compounds was evaluated in vitro using TR-FRET assay with white 384-well low volume microplate (Greiner Bio-One). CDK2/Cyclin E2 catalyzed phosphorylation of peptide in the presence and absence of compounds was measured and used in IC50 determination. Recombinant protein complex CDK2/Cyclin E2, expressed from insect cell, was purchased from ProQinase. Testing compounds were dissolved in DMSO at 1 mM and tested in 9-dose IC50 mode. The reaction mixture was prepared by mixing CDK2/CyclinE2 (1 nM final), ULight-4E-BP1 (50 nM final, Perkinelmer, TRF0128-D), and ATP (1 mM final) in assay buffer (20 mM of HEPES pH 7.4, 1 mM of EGTA, 0.05% BSA, 0.005% Tween 20, and 1 mM TCEP). The compound of interest in DMSO was added to each well in 3-fold serial dilution by dispenser (TECAN D300E) to make a 9.9 μL of reaction mixture. After 20 minutes preincubation at room temperature, 0.1 μL MgCl2 (10 mM final) was added to initiate the reaction. Following a 45 minute incubation at 37° C., the reaction was stopped by addition of 2 μL of quenching buffer consisting of Lance detection buffer (Perkinelmer CR97-100C), LANCE Ultra Europium-anti-P-4E-BP1 (Perkinelmer, TRF0216-D), EDTA, and incubate at room temperature for additional 60 minutes in the dark. The reaction signal was measured by Envision multimode plate reader (PerkinElmer, 2102-0010). IC50 values were determined by fitting the data to the standard 4 parameters with Hill Slope using GraphPad Prism software.

pRB in OVCAR3 cells = test: pRB ICW Assay in OVCAR3 Cells; format: cell-based; details: Homo sapiens, OVCAR-3, incubated with compound for 2 hours, read-out: OVCAR3 p-RB ICW IC50
Experimental: pRB ICW Assay in OVCAR3 Cells
OVCAR3 cells were maintained in RPMI (Corning, Catalog #: 10-040-CV) supplemented with 10% v/v FBS (Gibco, Catalog #: 26140-079), 1% v/v Penicillin Streptomycin (Gibco, Catalog #15140-122.) OVCAR3 cells grown at log phase were trypsinized, counted, and resuspended in fresh medium to reach a final density of 6.7e4 cells/mL and 75 μL of culture were dispensed into a 384-well plate (Falcon, cat #353962) using a Multidrop Combi dispenser (Thermo Scientific). The next day, compounds were dispensed as a 9-point, ½ log serial dilution using a Tecan digital dispenser (D300e), and cells were incubated with compound for 2 hours in a humidified incubator at 37° C. A reference compound at a final concentration of 10 μM was used as a control for maximum inhibition. Each compound was tested in duplicates for each experiment. At the end of the incubation, 25 μL of 16% paraformaldehyde (Electron Microscopy, cat #15710) was slowly added to each well and the plate was incubated at room temperature (RT) for 30 minutes to fix cells. Cells were then permeabilized by incubating with 50 μL/well of wash buffer (lx PBS with 0.1% Triton X-100) 5×5 minutes, followed by 1 hour blocking with 30 μL/well of Odyssey blocking buffer (Li—COR, cat #927-40000), at RT. Anti-phosphor RB antibody (Cell signaling 8516S) was diluted 1:1000 in Odyssey blocking buffer and 20 μL was added to all wells and incubated overnight in 4° C. with gently rocking. The next day, cells were washed 5×5 min with 50 μL/well of wash buffer, followed with 1 hour incubation with secondary antibody and DRAQ5 diluted in Odyssey blocking buffer (1:500 dilution for secondary antibody and 1:2000 dilution for DRAQ5), 5×5 min washes, and one last wash with water. Plates were dried in 37° C. oven for 5 minutes and scanned using Li—COR Odyssey CLx imaging system to acquire intensities at 700 and 800 nm channels.

CDK4/Cyclin D1 = biological target: T1, CDK4/Cyclin D1 (Homo sapiens, UniProt P11802); test: CDK4/CyclinD1 Enzymatic Activity Assay (TR-FRET); format: biochemical; details: CDK4/CyclinD1 1 nM, ATP 2 mM, read-out: CDK4_D1 IC50
T1 construct: purchased ProQinase; host or cells: insect cell
T1 sequence (P11802 whole entry): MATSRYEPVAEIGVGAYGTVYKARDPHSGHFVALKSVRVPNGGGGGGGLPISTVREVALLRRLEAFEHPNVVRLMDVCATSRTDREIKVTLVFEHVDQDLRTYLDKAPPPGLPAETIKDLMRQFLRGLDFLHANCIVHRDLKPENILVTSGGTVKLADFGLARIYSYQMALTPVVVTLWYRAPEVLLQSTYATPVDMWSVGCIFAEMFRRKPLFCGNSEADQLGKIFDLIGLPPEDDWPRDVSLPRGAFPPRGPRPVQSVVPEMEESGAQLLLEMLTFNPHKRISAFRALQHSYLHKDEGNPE
T1 sequence (P24385 whole entry partner): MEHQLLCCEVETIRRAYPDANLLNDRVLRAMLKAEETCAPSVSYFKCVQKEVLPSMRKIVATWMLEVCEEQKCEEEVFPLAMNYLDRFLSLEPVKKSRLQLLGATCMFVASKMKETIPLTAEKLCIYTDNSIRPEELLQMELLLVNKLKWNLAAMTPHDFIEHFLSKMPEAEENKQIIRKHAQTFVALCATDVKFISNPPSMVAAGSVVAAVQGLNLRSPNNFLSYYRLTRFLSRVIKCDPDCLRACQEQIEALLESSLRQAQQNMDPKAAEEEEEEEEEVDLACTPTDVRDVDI
Experimental: CDK4/CyclinD1 Enzymatic Activity Assay
The inhibitory activity of compounds was evaluated in vitro using TR-FRET assay with white 384-well low volume microplate (Greiner Bio-One). CDK4/Cyclin D1 catalyzed phosphorylation of peptide in the presence and absence of compounds was measured and used in IC50 determination. Recombinant protein complex CDK4/Cyclin D1, expressed from insect cell, was purchased from ProQinase. Testing compounds were dissolved in DMSO at 1 mM and tested in 9-dose IC50 mode. The reaction mixture was prepared by mixing CDK4/CyclinD1 (1 nM final), ULight-4E-BP1 (100 nM final, Perkinelmer, TRF0128-D), and ATP (2 mM final) in assay buffer (20 mM of HEPES pH 7.4, 1 mM of EGTA, 0.05% BSA, 0.005% Tween 20, and 1 mM TCEP). The compound of interest in DMSO was added to each well in 3-fold serial dilution by the dispenser (TECAN D300E) to make a 9.9 μL of reaction mixture. After 20 minutes preincubation at room temperature, 0.1 μL MgCl2 (10 mM final) was added to initiate the reaction. Following a 45 minute incubation at 37° C., the reaction was stopped by addition of 2 μL of quenching buffer consisting of Lance detection buffer (Perkinelmer CR97-100C), LANCE Ultra Europium-anti-P-4E-BP1 (Perkinelmer, TRF0216-D), EDTA, and incubated at room temperature for additional 60 minutes in dark. The reaction signal was measured by Envision multimode plate reader (PerkinElmer, 2102-0010). IC50 values were determined by fitting the data to the standard 4 parameters with Hill Slope using GraphPad Prism software.

Row | Structure (SMILES) | IC50 (CDK2/Cyclin E2) [µM] | IC50 (pRB in OVCAR3 cells) [µM] | IC50 (CDK4/Cyclin D1) [µM]
1 | CS(=O)(=O)N1CCC(Nc2ncc(C(F)(F)F)c(-c3cc4c(s3)C3CCCN3C4=O)n2)CC1 (stereo not drawn) [Example 21, 2-(2-((1-(Methylsulfonyl)piperidin-4-yl)amino)-5-(trifluoromethyl)pyrimidin-4-yl)-6,7,8,8a-tetrahydro-4H-thieno[2,3-a]pyrrolizin-4-one] | ≤ 0.1 | 0.1 to 0.5 | ≤ 0.1
2 | CS(=O)(=O)N1CCC(Nc2ncc(C(F)(F)F)c(-c3cc4c(s3)C3(C5CC5)CCCN3C4=O)n2)CC1 (stereo not drawn) [Example 22, 8a-Cyclopropyl-2-(2-((1-(methylsulfonyl)piperidin-4-yl)amino)-5-(trifluoromethyl)pyrimidin-4-yl)-6,7,8,8a-tetrahydro-4H-thieno[2,3-a]pyrrolizin-4-one] | ≤ 0.1 | ≤ 0.1 | ≤ 0.1
3 | CS(=O)(=O)N1CCC(Nc2ncc(C(F)(F)F)c(-c3cc4c(s3)C3(C5CCC5)CCCN3C4=O)n2)CC1 (stereo not drawn) [Example 23, 8a-Cyclobutyl-2-(2-((1-(methylsulfonyl)piperidin-4-yl)amino)-5-(trifluoromethyl)pyrimidin-4-yl)-6,7,8,8a-tetrahydro-4H-thieno[2,3-a]pyrrolizin-4-one] | ≤ 0.1 | 0.1 to 0.5 | ≤ 0.1
4 | CS(=O)(=O)N1CCC(Nc2ncc(C(F)(F)F)c(-c3cc4c(s3)C3(C5CC(F)(F)C5)CCCN3C4=O)n2)CC1 (stereo not drawn) [Example 24, 8a-(3,3-Difluorocyclobutyl)-2-(2-((1-(methylsulfonyl)piperidin-4-yl)amino)-5-(trifluoromethyl)pyrimidin-4-yl)-6,7,8,8a-tetrahydro-4H-thieno[2,3-a]pyrrolizin-4-one] | ≤ 0.1 | 0.1 to 0.5 | ≤ 0.1
5 | CS(=O)(=O)N1CCC(Nc2ncc(C(F)(F)F)c(-c3cc4c(s3)C3(C5CC(O)C5)CCCN3C4=O)n2)CC1 (stereo not drawn) [Example 25, 8a-(3-Hydroxycyclobutyl)-2-(2-((1-(methylsulfonyl)piperidin-4-yl)amino)-5-(trifluoromethyl)pyrimidin-4-yl)-6,7,8,8a-tetrahydro-4H-thieno[2,3-a]pyrrolizin-4-one] | ≤ 0.1 | ≤ 0.1 | ≤ 0.1
6 | CS(=O)(=O)N1CCC(Nc2ncc(C(F)(F)F)c(-c3cc4c(s3)C3(C5CC(F)C5)CCCN3C4=O)n2)CC1 (stereo not drawn) [Example 26, 8a-(3-Fluorocyclobutyl)-2-(2-((1-(methylsulfonyl)piperidin-4-yl)amino)-5-(trifluoromethyl)pyrimidin-4-yl)-6,7,8,8a-tetrahydro-4H-thieno[2,3-a]pyrrolizin-4-one] | ≤ 0.1 | 0.1 to 0.5 | ≤ 0.1
7 | CCC12CCCN1C(=O)c1cc(-c3nc(NC4CCN(S(C)(=O)=O)CC4)ncc3Cl)sc12 (stereo not drawn) [Example 27, 2-(5-Chloro-2-((1-(methylsulfonyl)piperidin-4-yl)amino)pyrimidin-4-yl)-8a-ethyl-6,7,8,8a-tetrahydro-4H-thieno[2,3-a]pyrrolizin-4-one] | ≤ 0.1 | ≤ 0.1 | ≤ 0.1

Now from value to compound:

Row | IC50 (CDK2/Cyclin E2) [µM] | IC50 (pRB in OVCAR3 cells) [µM] | IC50 (CDK4/Cyclin D1) [µM] | Structure (SMILES)
8 | ≤ 0.1 | ≤ 0.1 | ≤ 0.1 | CC(C)C12CC(O)CN1C(=O)c1cc(-c3nc(NC4CCN(S(C)(=O)=O)CC4)ncc3C(F)(F)F)sc12 (stereo not drawn) [Example 29, 7-Hydroxy-8a-isopropyl-2-(2-((1-(methylsulfonyl)piperidin-4-yl)amino)-5-(trifluoromethyl)pyrimidin-4-yl)-6,7,8,8a-tetrahydro-4H-thieno[2,3-a]pyrrolizin-4-one]
9 | ≤ 0.1 | 0.1 to 0.5 | ≤ 0.1 | COC1CN2C(=O)c3cc(-c4nc(NC5CCN(S(C)(=O)=O)CC5)ncc4C(F)(F)F)sc3C2(C(C)C)C1 (stereo not drawn) [Example 30, 8a-Isopropyl-7-methoxy-2-(2-((1-(methylsulfonyl)piperidin-4-yl)amino)-5-(trifluoromethyl)pyrimidin-4-yl)-6,7,8,8a-tetrahydro-4H-thieno[2,3-a]pyrrolizin-4-one]
10 | ≤ 0.1 | ≤ 0.1 | ≤ 0.1 | CC(C)C12CC(CO)CN1C(=O)c1cc(-c3nc(NC4CCN(S(C)(=O)=O)CC4)ncc3C(F)(F)F)sc12 (stereo not drawn) [Example 31, 7-(Hydroxymethyl)-8a-isopropyl-2-(2-((1-(methylsulfonyl)piperidin-4-yl)amino)-5-(trifluoromethyl)pyrimidin-4-yl)-6,7,8,8a-tetrahydro-4H-thieno[2,3-a]pyrrolizin-4-one]
11 | ≤ 0.1 | ≤ 0.1 | ≤ 0.1 | CCC12CC(F)(F)CN1C(=O)c1cc(-c3nc(NC4CCN(S(C)(=O)=O)CC4)ncc3C(F)(F)F)sc12 (stereo not drawn) [Example 32, 8a-Ethyl-7,7-difluoro-2-(2-((1-(methylsulfonyl)piperidin-4-yl)amino)-5-(trifluoromethyl)pyrimidin-4-yl)-6,7,8,8a-tetrahydro-4H-thieno[2,3-a]pyrrolizin-4-one]
12 | ≤ 0.1 | ≤ 0.1 | ≤ 0.1 | CCC12CC(O)CN1C(=O)c1cc(-c3nc(NC4CCN(S(C)(=O)=O)CC4)ncc3C(F)(F)F)sc12 (stereo not drawn) [Example 33, 8a-Ethyl-7-hydroxy-2-(2-((1-(methylsulfonyl)piperidin-4-yl)amino)-5-(trifluoromethyl)pyrimidin-4-yl)-6,7,8,8a-tetrahydro-4H-thieno[2,3-a]pyrrolizin-4-one]
13 | ≤ 0.1 | ≤ 0.1 | ≤ 0.1 | CCC12CC(C)(O)CN1C(=O)c1cc(-c3nc(NC4CCN(S(C)(=O)=O)CC4)ncc3C(F)(F)F)sc12 (stereo not drawn) [Example 34, 8a-Ethyl-7-hydroxy-7-methyl-2-(2-((1-(methylsulfonyl)piperidin-4-yl)amino)-5-(trifluoromethyl)pyrimidin-4-yl)-6,7,8,8a-tetrahydro-4H-thieno[2,3-a]pyrrolizin-4-one]
14 | ≤ 0.1 | ≤ 0.1 | ≤ 0.1 | CCC12CC(F)(F)CN1C(=O)c1cc(-c3nc(NC4CCN(S(=O)(=O)c5cnn(C)c5)CC4)ncc3C(F)(F)F)sc12 (stereo not drawn) [Example 35, 8a-Ethyl-7,7-difluoro-2-(2-((1-((1-methyl-1H-pyrazol-4-yl)sulfonyl)piperidin-4-yl)amino)-5-(trifluoromethyl)pyrimidin-4-yl)-6,7,8,8a-tetrahydro-4H-thieno[2,3-a]pyrrolizin-4-one]
